Data: patent publication US6692928B1, “Methods for identifying cardiovascular agents” (New England Medical Center Hospitals, Inc., priority 1996, dated 2004)
Like-named read-outs stand apart in the source and are kept apart here.

Legend:
human eNOS gene = test: eNOS luciferase reporter in rat cardiomyocytes; assay type: cell-based; conditions: 1 nM E2, 48 hours
Excerpt: (§1) ER-regulation of two cardiac target genes, iNOS and eNOS, were studied in transient transfection experiments using either an iNOS-luciferase reporter plasmid (containing 1.1 Kb of the 5′-flanking region of the human iNOS gene driving expression of the luciferase cDNA) or an eNOS luciferase reporter plasmid (containing 1.6 Kb of the 5′ flanking region of the human eNOS gene driving expression of the luciferase cDNA). […] In these experiments, E2 increased the abundance of iNOS protein (50+/−23-fold; n=3; p<0.05) as well as eNOS protein (15.7+/−4.3 fold; n=3; p<0.05).

eNOS [1] = test: eNOS activity in ovine pulmonary aortic endothelial cells (PAEC); assay type: cell-based; conditions: for basal eNOS activity: no E2
Excerpt: (§2) Several molecular and pharmacologic interventions can disrupt this rapid ERα-eNOS signaling pathway.

MAP kinase = MAP kinase activity in PAEC; assay type: cell-based, ovine; conditions: 5 minute exposure, 10^−8M E2
Excerpt: as §2

human iNOS gene = test: iNOS-luciferase reporter in rat cardiomyocytes; assay type: cell-based; conditions: 1 nM E2, 48 hours
Excerpt: as §1

eNOS [2] = test: eNOS activity in transfected COS 7 cells; assay type: cell-based
Excerpt: In contrast, ERα and eNOS coexpression had no effect on basal (unstimulated) eNOS activity (102+/−33% of activity in sham-transfected cells (ERα(−)).

vascular injury response = conditions: 14 days after carotid injury, physiologic levels
Excerpt: Vascular medial are increases and smooth muscle cell proliferation were quantitated 14 days following cartoid injury in ovariectomized female mice treated with vehicle or physiologic levels of 17-β estradiol.

iNOS protein = iNOS protein level by immunoblotting; assay type: cell-based, rat; conditions: n=3
Excerpt: as §1

eNOS protein = eNOS protein level by immunoblotting; assay type: cell-based, rat; conditions: n=3
Excerpt: as §1

[3] = tested on: endothelium-denuded aortic rings; test: Mouse aortic vascular ring bioassay, phenylephrine-induced constriction; conditions: male mice
Excerpt: An eight-chamber vascular ring bioassay system may be used to study vasomotion in vascular rings from mice. Vascular contraction and relaxation may be examined in endothelial-intact and endothelial-denuded mouse aortic vascular rings. […] The mouse aortic ring experiments may be carried out in rings from wild type, ERαKO and ERβKO animals.

estrogen receptor = target: T1, estrogen receptor (Homo sapiens, UniProt P03372); test: ERE-Luc reporter activation of the estrogen receptor in transfected cells; assay type: cell-based
T1 construct: expressed in transfected cells; host or cells: PVEC, HSVSMC, human aortic VSMC, HeLa (transient transfection)
T1 sequence (P03372 1-595): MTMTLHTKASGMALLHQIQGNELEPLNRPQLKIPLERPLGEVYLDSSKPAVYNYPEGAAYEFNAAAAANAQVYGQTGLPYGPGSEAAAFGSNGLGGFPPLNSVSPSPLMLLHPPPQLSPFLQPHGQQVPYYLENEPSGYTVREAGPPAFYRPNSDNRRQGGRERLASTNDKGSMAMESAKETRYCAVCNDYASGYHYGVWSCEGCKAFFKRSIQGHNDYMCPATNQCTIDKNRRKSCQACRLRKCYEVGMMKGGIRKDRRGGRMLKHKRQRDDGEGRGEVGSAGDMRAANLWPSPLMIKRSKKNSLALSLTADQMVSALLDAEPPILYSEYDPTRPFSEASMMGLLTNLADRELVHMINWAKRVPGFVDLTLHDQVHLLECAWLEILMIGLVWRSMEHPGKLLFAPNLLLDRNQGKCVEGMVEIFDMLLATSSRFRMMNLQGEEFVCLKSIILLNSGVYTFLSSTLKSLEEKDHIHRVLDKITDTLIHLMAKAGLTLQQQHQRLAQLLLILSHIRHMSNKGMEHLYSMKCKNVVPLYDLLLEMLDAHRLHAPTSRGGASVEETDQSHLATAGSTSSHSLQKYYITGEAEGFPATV
Method: The cells were then cultured for 48 hours in serum-free medium in the absence or presence of EGF (100 ng/ml).

vascular injury = test: Mouse carotid injury model, L-NAME and eNOS knockout studies; assay type: in vivo, mice
Excerpt: Two endpoints were routinely analyzed. First, computerized morphometrics were collected to examine the extent of vascular injury by quantitating medial area measurements. Second, BrdU labeling of VSMC and endothelial cells that proliferated following the injury was quantitated, which required extensive immunohistochemical staining for (i) BrdU, (ii) smooth muscle α-actin, and (iii) Factor VIII-related antigen (endothelial cells).
The studies may also be carried out in wild type mice and mice lacking ERα, ERβ, eNOS, iNOS, or nNOS, or in mice lacking a combination of these proteins. The level of NOS isoforms may be examined using isoform-specific antibodies.

VEGF expression [4] = test: VEGF expression in rat VSMC (A7r5 cells); assay type: cell-based
PAEC = test: Protein tyrosine phosphorylation in PAEC; assay type: cell-based
Method: An immortalized PAEC line retains the ER-eNOS activation pathway completely and provides a useful reagent for identifying other members of the pathway. Experiments indicate that a number of proteins are rapidly tyrosine phosphorylated following exposure of PAEC to estrogen. This occurs within 5-10 minutes and includes a series of low molecular weight proteins (15-40 Kd), as well as several larger proteins.

VEGF expression [5] = test: pmVEGF-Luc reporter in WB572 cells; assay type: cell-based, human; conditions: estrogen 10^−6M, 48 hours
Excerpt: (§3) One useful reporter construct is pmVEGF-Luc. In this reporter construct, a 1.6 kB fragment of genomic DNA located upstream of the murine vascular endothelial cell growth factor (VEGF) gene has been inserted into the pGL2-Basic luciferase reporter plasmid (Promega; Madison, Wis.). The 1.6 kB fragment includes the transcription start site, 1.2 kB of sequence upstream of the start site, and 0.4 kB of sequence downstream of the start site. Useful variants of this reporter plasmid can be made by deleting a portion of the murine VEGF control region. For example, pVEGF-Luc-Apa/Kpn is identical to pVEGF-luc except that 455 bp at the 5′ end of the 1.6 kB fragment have been removed; pVEGF-Luc-Mlu is identical to pVEGF-luc except that 768 bp at the 5′ end of the 1.6 kB fragment have been removed; and pVEGF-Luc-Sma is identical to pVEGF-luc except that 455 bp at the 5′ end of the 1.6 kB fragment have been removed. Similar reporter constructs can be created using upstream regulatory sequences from the human VEGF gene. For example, phVEGF-Luc is a reporter construct in which 5.1 kb genomic DNA upstream of the human VEGF coding sequence inserted into the pGL2-Basic luciferase reporter plasmid. This particular construct includes 3.4 kb of sequence upstream of the VEGF transcription start site and 1.7 kb untranslated sequence downstream of the transcription start site.

VEGF gene [6] = test: VEGF-luciferase reporter, transiently transfected HeLa cells; assay type: cell-based
Excerpt: (§4) To study the role of estrogen on expression of the VEGF gene in vascular smooth muscle cells, human saphenous vein smooth muscle cells (HSVSMC) and HeLa cells were transiently transfected with a VEGF-luciferase reporter construct. In this reporter construct, expression of luciferase is under the control of a 1.2 kB fragment of the murine VEGF gene regulatory region. The cells were also transfected with an estrogen receptor α expression construct. All of the results described below have been normalized for transfection efficiency.

[7] = estrogen replacement therapy, by as much as; cited from earlier work
VEGF gene [8] = test: VEGF-luciferase reporter, transiently transfected HSVSMC; assay type: cell-based, human; conditions: VEGF-luciferase + estrogen receptor α construct, 1 μM estrogen, n=12
Excerpt: as §4

VEGF expression [9] = test: pmVEGF-Luc reporter in GH3B6 cells; assay type: cell-based, rat; conditions: estrogen 10^−6M, 48 hours
Excerpt: as §3

pERE-Luc reporter = pERE-Luc reporter in GH3B6 cells; assay type: cell-based, rat; conditions: same conditions (estrogen 10^−6M, 48 hours)

C[C@]12CC[C@@H]3c4ccc(O)cc4C[C@@H](CCCCCCCCC[S+]([O-])CCCC(F)(F)C(F)(F)F)[C@H]3[C@@H]1CC[C@@H]2O (stereo partly drawn) [ICI 182,780]
inhibition of E2 activation of eNOS reporter (human eNOS gene): blocked fully
inhibition of acute eNOS response to E2 (eNOS [1]; PAEC): fully inhibited
inhibition of the enhanced eNOS response (eNOS [1]; PAEC overexpressing ER): inhibited completely
basal eNOS activity (eNOS [1]; PAEC): caused no change
inhibition of E2-induced increase in MAP kinase activity (MAP kinase): completely inhibited
inhibition of E2 activation of iNOS reporter (human iNOS gene): completely inhibited

C[C@]12CC[C@@H]3c4ccc(O)cc4CC[C@H]3[C@@H]1CC[C@@H]2O [E2, 17β-estradiol]
eNOS activity (eNOS [2]; COS 7 cells transfected with eNOS alone): had no effect
increase in eNOS activity (eNOS [2]; COS 7 cells transfected with eNOS and ERα, acute stimulation): > 3 fold
increase of eNOS reporter activity (human eNOS gene; n=9): 6.9+/−0.06 fold
eNOS activity (eNOS [1]; PAEC, E2 10^−8M): stimulates eNOS activity
time to maximal eNOS stimulation (eNOS [1]; PAEC, E2 10^−8M): ≤ 5 min
MAP kinase activity (MAP kinase): causes an increase in MAP kinase activity
increase of iNOS reporter activity (human iNOS gene; n=9): 8.1+/−0.02 fold
vascular injury measures (medial area increase, smooth muscle cell proliferation) (vascular injury response; estrogen receptor α knockout ovariectomized female mice): markedly inhibited all measures of vascular injury
vascular injury measures (medial area increase, smooth muscle cell proliferation) (vascular injury response; wild-type ovariectomized female mice): markedly inhibited all measures of vascular injury
increase in abundance of iNOS protein (iNOS protein): 50+/−23 fold
increase in abundance of eNOS protein (eNOS protein): 15.7+/−4.3 fold
phenylephrine-induced constriction ([3]; chronic (18h) treatment): inhibited contraction

PDGF
estrogen receptor activation (estrogen receptor; all cell types studied (PVEC, HSVSMC, human aortic VSMC, HeLa)): did not activate the estrogen receptor

O=c1c(-c2ccc(O)cc2)coc2cc(O)cc(O)c12 [genistein]
inhibition of acute eNOS response to E2 (eNOS [1]; PAEC): completely inhibit
basal eNOS activity (eNOS [1]; PAEC): do not alter basal eNOS activity

COc1cccc(-c2cc(=O)c3ccccc3o2)c1N [PD98059]
inhibition of acute eNOS response to E2 (eNOS [1]; PAEC): completely inhibit

COC(=O)[C@@H](N)CCCNC(=N)N[N+](=O)[O-] [L-NAME]
effect on estrogen protection against vascular injury (medial area) (vascular injury; co-administration with estrogen, ovariectomized female mice): negated
effect on the 17β estradiol inhibition of contraction [3]: reversed the inhibition

estrogen
activation of VEGF expression (VEGF expression [4]): did not activate VEGF expression
time of protein tyrosine phosphorylation after exposure (PAEC): 5 to 10 min
protection against injury (medial area endpoint) (vascular injury; eNOS KO mice, ovariectomized female): still able to protect against injury
increase in luciferase activity (VEGF expression [5]): 1.8 fold
increase of luciferase expression (VEGF gene [6]; HeLa cells co-transfected with estrogen receptor α expression plasmid, n=21): 4.2±0.8 fold
effect on luciferase expression (VEGF gene [6]; HeLa cells without estrogen receptor α, estrogen containing media): no effect
reduction of the incidence of coronary artery disease [7]: 30-50%
increase of luciferase expression (VEGF gene [8]): 1.7±0.2 fold
effect on luciferase activity (VEGF expression [9]): no effect
activation of pERE-Luc reporter (pERE-Luc reporter): 8 fold

C[C@]12CC[C@@H]3c4ccc(O)cc4CC[C@H]3[C@@H]1CC[C@H]2O [17α-estradiol]
eNOS activity (eNOS [1]; PAEC, 10^−12 to 10^−6M): had no effect

CC/C(=C(\c1ccccc1)c1ccc(OCCN(C)C)cc1)c1ccccc1 [tamoxifen]
inhibition of acute eNOS response to E2 (eNOS [1]; PAEC): fully inhibited
basal eNOS activity (eNOS [1]; PAEC): caused no change
inhibition of E2-induced increase in MAP kinase activity (MAP kinase): completely inhibited

herbamycin A
inhibition of acute eNOS response to E2 (eNOS [1]; PAEC): completely inhibit
basal eNOS activity (eNOS [1]; PAEC): do not alter basal eNOS activity

EGF: epidermal growth factor
effect on luciferase activity (estrogen receptor; HeLa cells, EGF 100 ng/ml, 48 hours, serum-free): no effect
increase in luciferase activity (estrogen receptor; PVEC, HSVSMC and human aortic VSMC, EGF 100 ng/ml, 48 hours, serum-free): ~3 fold
